Data published in patent US11072612B2, “NLRP3 modulators” (INNATE TUMOR IMMUNITY, INC., priority 2016, dated 2021).

Tests used:
Assay type in all cases: cell-based
hNLRP3 = target: T1, hNLRP3 (Homo sapiens, UniProt Q96P20); experiment: hNLRP3 agonist assay: IL-1β production in PMA-differentiated THP-1 cells (ELISA); settings: Table 2, 4 hours, IL-1β by ELISA
T1 construct: THP-1 cells were purchased from the American Type Culture Collection; host or cells: THP-1 cells, PMA-differentiated
Procedure: THP-1 cells were purchased from the American Type Culture Collection and sub-cultured according to instructions from the supplier. Prior to experiments, cells were cultured in RPMI 1640 containing 10% heat inactivated FBS, penicillin (100 units/ml) and streptomycin (100 μg/ml), and maintained in log phase prior to experimental setup. Prior to the experiment THP-1 were treated with PMA (Phorbol 12-myristate 13-acetate) (10 μg/ml) for 24 hours. The day of the experiment the media was removed and attaching cells were treated with trypsin for 2 minutes, cells were then collected, washed with PBS (phosphate buffer saline), spin down, resuspended in 2% heat inactivated FBS with RPMI at a concentration of 1×10^6 cells/ml, and 100 μl was plated in a 96 well plate. Cells were incubated with compounds for 4 hours. Cell free supernatant was collected and the production of IL-1β was evaluated by ELISA. Compounds were dissolved in dimethyl sulfoxide (DMSO) and added to the culture medium to achieve desired concentration (e.g. 100, 30, 10, 3, 1, 0.3 or 0.1 μM). A vehicle only control was run concurrently with each experiment. Final DMSO concentration was 1%.

TLR7 = target: T2, TLR7 (Homo sapiens, UniProt Q9NYK1); experiment: TLR7 EC50 assay; settings: Table 2
T2 sequence (Q9NYK1 27-1049): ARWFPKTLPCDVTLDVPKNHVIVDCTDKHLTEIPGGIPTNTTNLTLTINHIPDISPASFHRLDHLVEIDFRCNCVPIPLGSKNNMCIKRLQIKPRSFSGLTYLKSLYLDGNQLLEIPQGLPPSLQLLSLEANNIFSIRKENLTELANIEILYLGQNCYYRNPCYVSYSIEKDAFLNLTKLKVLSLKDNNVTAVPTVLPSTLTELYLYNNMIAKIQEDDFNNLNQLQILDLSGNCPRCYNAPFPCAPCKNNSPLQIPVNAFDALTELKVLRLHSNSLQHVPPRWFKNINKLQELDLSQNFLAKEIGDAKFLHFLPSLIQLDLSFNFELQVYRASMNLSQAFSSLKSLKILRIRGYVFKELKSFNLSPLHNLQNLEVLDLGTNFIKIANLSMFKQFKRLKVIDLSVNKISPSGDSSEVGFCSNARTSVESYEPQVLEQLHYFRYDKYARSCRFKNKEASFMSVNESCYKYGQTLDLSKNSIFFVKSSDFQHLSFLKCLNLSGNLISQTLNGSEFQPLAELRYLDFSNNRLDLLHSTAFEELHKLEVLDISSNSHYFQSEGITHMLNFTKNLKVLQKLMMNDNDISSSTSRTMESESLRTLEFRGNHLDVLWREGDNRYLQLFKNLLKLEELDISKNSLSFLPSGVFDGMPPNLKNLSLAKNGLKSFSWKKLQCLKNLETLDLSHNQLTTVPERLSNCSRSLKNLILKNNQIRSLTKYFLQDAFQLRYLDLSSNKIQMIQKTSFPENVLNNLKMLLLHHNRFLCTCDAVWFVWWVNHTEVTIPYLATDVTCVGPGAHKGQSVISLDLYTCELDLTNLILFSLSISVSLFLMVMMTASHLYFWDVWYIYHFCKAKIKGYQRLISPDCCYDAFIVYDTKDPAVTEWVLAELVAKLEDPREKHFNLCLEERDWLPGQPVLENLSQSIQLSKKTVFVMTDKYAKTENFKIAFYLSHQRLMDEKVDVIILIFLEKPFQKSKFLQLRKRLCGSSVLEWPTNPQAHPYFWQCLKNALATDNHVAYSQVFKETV

TLR8 = target: T3, TLR8 (Homo sapiens, UniProt Q9NR97); experiment: TLR8 EC50 assay; settings: Table 2
T3 sequence (Q9NR97 27-1041): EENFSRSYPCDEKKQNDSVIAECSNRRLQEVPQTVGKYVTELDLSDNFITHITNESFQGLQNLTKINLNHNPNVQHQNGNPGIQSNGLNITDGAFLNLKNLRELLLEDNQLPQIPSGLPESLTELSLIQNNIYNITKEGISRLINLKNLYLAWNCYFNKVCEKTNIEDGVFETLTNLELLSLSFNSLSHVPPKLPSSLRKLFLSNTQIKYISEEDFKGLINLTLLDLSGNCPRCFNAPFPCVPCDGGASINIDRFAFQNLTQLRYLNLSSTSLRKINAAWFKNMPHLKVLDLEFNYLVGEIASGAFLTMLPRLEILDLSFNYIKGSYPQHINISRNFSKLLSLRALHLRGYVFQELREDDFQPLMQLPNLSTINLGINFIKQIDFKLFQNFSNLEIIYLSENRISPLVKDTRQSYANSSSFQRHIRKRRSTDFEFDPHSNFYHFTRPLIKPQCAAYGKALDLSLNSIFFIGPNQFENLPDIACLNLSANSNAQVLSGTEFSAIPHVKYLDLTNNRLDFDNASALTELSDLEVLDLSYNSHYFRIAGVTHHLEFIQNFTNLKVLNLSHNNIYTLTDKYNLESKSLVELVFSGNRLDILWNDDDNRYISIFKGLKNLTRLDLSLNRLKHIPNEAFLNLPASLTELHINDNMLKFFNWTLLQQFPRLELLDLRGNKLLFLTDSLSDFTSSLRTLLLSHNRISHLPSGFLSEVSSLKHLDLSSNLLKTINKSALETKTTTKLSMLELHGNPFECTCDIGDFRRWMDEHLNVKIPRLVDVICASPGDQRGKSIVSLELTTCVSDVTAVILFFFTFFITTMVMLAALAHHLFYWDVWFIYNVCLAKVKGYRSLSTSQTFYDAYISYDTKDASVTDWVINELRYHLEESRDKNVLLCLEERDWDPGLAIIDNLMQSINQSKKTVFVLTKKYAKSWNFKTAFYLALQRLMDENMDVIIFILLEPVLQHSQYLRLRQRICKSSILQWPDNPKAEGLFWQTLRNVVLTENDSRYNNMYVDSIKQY

T1 sequence (Q96P20 whole entry): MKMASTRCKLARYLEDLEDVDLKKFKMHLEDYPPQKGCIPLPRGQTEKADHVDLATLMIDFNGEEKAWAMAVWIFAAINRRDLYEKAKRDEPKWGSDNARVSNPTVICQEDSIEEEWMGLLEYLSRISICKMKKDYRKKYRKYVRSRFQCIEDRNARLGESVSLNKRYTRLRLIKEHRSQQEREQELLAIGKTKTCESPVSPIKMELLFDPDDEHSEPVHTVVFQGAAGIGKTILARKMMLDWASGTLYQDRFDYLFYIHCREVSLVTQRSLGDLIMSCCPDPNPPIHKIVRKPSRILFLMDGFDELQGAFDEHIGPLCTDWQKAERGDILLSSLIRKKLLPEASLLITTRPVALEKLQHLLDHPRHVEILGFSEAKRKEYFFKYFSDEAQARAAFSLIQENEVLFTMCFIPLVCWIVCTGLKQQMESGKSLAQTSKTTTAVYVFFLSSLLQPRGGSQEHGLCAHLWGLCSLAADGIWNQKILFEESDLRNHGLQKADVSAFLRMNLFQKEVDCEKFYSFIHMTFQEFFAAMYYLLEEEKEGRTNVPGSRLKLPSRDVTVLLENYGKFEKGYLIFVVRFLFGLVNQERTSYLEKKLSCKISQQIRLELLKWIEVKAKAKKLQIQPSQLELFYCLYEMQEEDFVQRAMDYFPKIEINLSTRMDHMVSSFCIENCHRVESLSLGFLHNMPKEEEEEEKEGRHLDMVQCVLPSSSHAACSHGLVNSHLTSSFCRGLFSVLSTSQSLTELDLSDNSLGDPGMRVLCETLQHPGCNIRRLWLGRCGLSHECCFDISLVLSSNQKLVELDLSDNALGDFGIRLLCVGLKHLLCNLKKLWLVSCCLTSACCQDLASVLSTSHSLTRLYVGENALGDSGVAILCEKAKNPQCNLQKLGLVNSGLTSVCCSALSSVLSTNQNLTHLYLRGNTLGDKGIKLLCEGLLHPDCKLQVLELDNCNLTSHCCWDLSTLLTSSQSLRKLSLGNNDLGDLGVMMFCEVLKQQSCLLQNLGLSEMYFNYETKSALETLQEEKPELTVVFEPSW

| SMILES | EC50 (hNLRP3) | EC50 (TLR7) | EC50 (TLR8) |
| --- | --- | --- | --- |
| Cc1ccccc1-c1ccc2c(c1)nc(N)c1nc(CCCO)[nH]c12 [Compound 199, 3-[4-amino-7-(2-methylphenyl)-1H-imidazo[4,5-c]quinolin-2-yl]propan-1-ol] | > 100 µM | > 100 µM | > 100 µM |
| CCN(C(C)=O)C(C)(C)c1nc2c(N)nc3cc(-c4cc[nH]n4)ccc3c2[nH]1 [Compound 253] | 1 to 20 µM | > 100 µM | > 100 µM |
| CN(C)c1nc(-c2ccc3c(c2)nc(N)c2nc(CCCO)[nH]c23)cs1 [Compound 177, 3-[4-amino-7-[2-(dimethylamino)-1,3-thiazol-4-yl]-1H-imidazo[4,5-c]quinolin-2-yl]propan-1-ol] | > 100 µM | > 100 µM | > 100 µM |
| Nc1nc2cc(-c3cc[nH]n3)ccc2c2[nH]c(CN3CCCC3)nc12 [Compound 233] | ≤ 1 µM | > 100 µM | > 100 µM |
| Nc1nc2ccccc2c2[nH]c([C@H]3C[C@@H](O)C3)nc12 [Compound 132] | 20 to 100 µM | > 100 µM | > 100 µM |
| Nc1nc2cc(N3CCNC3=O)ccc2c2[nH]c(CCCO)nc12 [Compound 115] | 1 to 20 µM | > 100 µM | > 100 µM |
| Nc1nc2cc(-c3ccncc3)ccc2c2[nH]c(CCCOCc3ccccc3)nc12 [Compound 148, 2-(3-phenylmethoxypropyl)-7-pyridin-4-yl-1H-imidazo[4,5-c]quinolin-4-amine] | 20 to 100 µM | > 100 µM | > 100 µM |
| Nc1nc2cc(-n3cccn3)ccc2c2[nH]c(CCCO)nc12 [Compound 178, 3-(4-amino-7-pyrazol-1-yl-1H-imidazo[4,5-c]quinolin-2-yl)propan-1-ol] | ≤ 1 µM | > 100 µM | 20 to 100 µM |
| COc1ccc(-c2ccc3c(c2)nc(N)c2nc(CCCO)[nH]c23)cc1 [Compound 211, 3-[4-amino-7-(4-methoxyphenyl)-1H-imidazo[4,5-c]quinolin-2-yl]propan-1-ol] | > 100 µM | > 100 µM | > 100 µM |
| Nc1nc2cc(F)c(F)cc2c2[nH]c(CCCO)nc12 [Compound 136] | 20 to 100 µM | > 100 µM | > 100 µM |
| CC(C)(C)OC(=O)NC1CCC(c2nc3c(N)nc4cc(Br)ccc4c3[nH]2)CC1 (stereo not drawn) [Compound 110] | 1 to 20 µM | > 100 µM | > 100 µM |
| CCNC(C)c1nc2c(N)nc3cc(-c4cc[nH]n4)ccc3c2[nH]1 (stereo not drawn) [Compound 240] | 1 to 20 µM | > 100 µM | > 100 µM |
| Nc1nc2cc(-c3ccc[nH]c3=O)ccc2c2[nH]c(CCCOCc3ccccc3)nc12 [Compound 249] | 1 to 20 µM | > 100 µM | > 100 µM |
| Nc1nc2cc(-c3ccc[nH]c3=O)ccc2c2[nH]c(CCCO)nc12 [Compound 238] | 1 to 20 µM | > 100 µM | > 100 µM |
| Nc1nc2cc(-c3ccncc3)ccc2c2[nH]c(CCCO)nc12 [Compound 149] | 1 to 20 µM | > 100 µM | > 100 µM |
| Nc1nc2cc(-c3ccc(Cl)cc3)ccc2c2[nH]c(CCCO)nc12 [Compound 209, 3-[4-amino-7-(4-chlorophenyl)-1H-imidazo[4,5-c]quinolin-2-yl]propan-1-ol] | > 100 µM | > 100 µM | > 100 µM |
| Cn1cc(-c2ccc3c(c2)nc(N)c2nc(CCCO)[nH]c23)cn1 [Compound 193, 3-[4-amino-7-(1-methylpyrazol-4-yl)-1H-imidazo[4,5-c]quinolin-2-yl]propan-1-ol] | 20 to 100 µM | > 100 µM | > 100 µM |
| Cc1cccc(-c2ccc3c(c2)nc(N)c2nc(CCCO)[nH]c23)c1 [Compound 205, 3-[4-amino-7-(3-methylphenyl)-1H-imidazo[4,5-c]quinolin-2-yl]propan-1-ol] | 20 to 100 µM | > 100 µM | > 100 µM |
| CN1CCC[C@H](c2nc3c(N)nc4ccccc4c3[nH]2)C1 [Compound 138] | 20 to 100 µM | > 100 µM | > 100 µM |
| CC(C)(C)OC(=O)N1CCC(c2nc3c(N)nc4cc(-c5cccnc5)ccc4c3[nH]2)CC1 [Compound 221] | 1 to 20 µM | > 100 µM | > 100 µM |
| Nc1nc2cc(-c3cccc(Cl)c3)ccc2c2[nH]c(CCCO)nc12 [Compound 204, 3-[4-amino-7-(3-chlorophenyl)-1H-imidazo[4,5-c]quinolin-2-yl]propan-1-ol] | > 100 µM | > 100 µM | > 100 µM |
| Nc1nc2cc(Cl)c(Cl)cc2c2[nH]c(CCCO)nc12 [Compound 126] | 1 to 20 µM | > 100 µM | > 100 µM |
| CN(C)C(=O)CCCn1c(CCCO)nc2c(N)nc3cc(Br)ccc3c21 [Compound 169] | 1 to 20 µM | > 100 µM | > 100 µM |
| CCCn1cc(-c2ccc3c(c2)nc(N)c2nc(CCCOCc4ccccc4)[nH]c23)cn1 [Compound 152, 2-(3-phenylmethoxypropyl)-7-(1-propylpyrazol-4-yl)-1H-imidazo[4,5-c]quinolin-4-amine] | 20 to 100 µM | > 100 µM | > 100 µM |
| Nc1nc2cc(-c3cccnc3Cl)ccc2c2[nH]c(CCCO)nc12 [Compound 215, 3-[4-amino-7-(2-chloropyridin-3-yl)-1H-imidazo[4,5-c]quinolin-2-yl]propan-1-ol] | > 100 µM | 20 to 100 µM | 20 to 100 µM |
| CC(C)(C)OC(=O)N1CCC(c2nc3c(N)nc4cc(-n5cccn5)ccc4c3[nH]2)CC1 [Compound 218] | ≤ 1 µM | > 100 µM | > 100 µM |
| CSc1ccc(-c2ccc3c(c2)nc(N)c2nc(CCCO)[nH]c23)cn1 [Compound 173, 3-[4-amino-7-(6-methylsulfanylpyridin-3-yl)-1H-imidazo[4,5-c]quinolin-2-yl]propan-1-ol] | > 100 µM | > 100 µM | > 100 µM |
| Cn1c(CCCO)nc2c(N)nc3cc(-c4cc[nH]n4)ccc3c21 [Compound 107] | ≤ 1 µM | > 100 µM | > 100 µM |
